Read-outs that look alike come from different tables or passages of the source.
Columns and labels:
[1] = test system: human platelet thromboxane production (cyclooxygenase pathway); assay: Human platelet thromboxane (TXB2) formation from [14C]-arachidonic acid, TLC; type: cell-based; conditions: for IC50: Platelet, read-out: Inhibitory Potency (I50); for potency as thromboxane inhibitor relative to non-hydroxylated parent: 13-HODE vs 9,11-18:2; for TXB2 formation (FIG. 2): CLA mix 3 and 10 μM, 9,11-18:2 30 and 60 μM, 10,12-18:2 3 and 10 μM, with ionophore A23187; for inhibitory effectiveness on platelet TXB2 formation, CLA mix and pure isomers compared: CLA mix vs pure 9,11- and 10,12-18:2
Method: (§1) Human platelets were isolated from donors according to previously established procedures (13) and resuspended in Krebs-Henseleit buffer (pH 7.4) at a concentration of 3×10^8 platelets/ml. The platelets (0.5 ml) were placed in a 37° C. water bath for several minutes and then treated with either vehicle (ethanol) or various concentrations of the fatty acid to be tested for 2 min. Next, 10 μM (final concentration) [^14 C]-arachidonic acid was added. In some experiments, 20 μM calcium ionophore A23187 was added about 5 sec. prior to the addition of the arachidonic acid substrate. Ten minutes after the addition of arachidonic acid, the reaction was terminated with 10% formic acid and the products extracted with chloroform-methanol. Product separation and analysis by thin layer chromatography (TLC) was carried out as previously described using unlabeled arachidonic acid, 15-HETE and thromboxane B2 as standards (11). The various radioactive product and unreacted substrate bands were visualized by autoradiography and quantitated either by scraping the bands from the TLC plate and counting the samples in a liquid scintillation counter or by determining the relative band intensities using a Personal Densitometer SI (Molecular Dynamics, Sunnyvale, Calif.) with ImageQuaNT v4.2 software).
To obtain the results shown in FIG. 2, the human platelets were pretreated with the various concentrations of CLA isomers followed by the addition of calcium ionophore A23187 and [^14 C]-arachidonic acid. Products were isolated, separated by thin layer chromatography as described above. […] The identities of the bands in decreasing order of Rf are as follows: AA-unreacted arachidonic acid, 12-HETE-12-hydroxyeicosatetraenoic acid (a platelet 12-lipoxygenase metabolite), HHT-12-hydroxyheptadecatrienoic acid, TXB2 -thromboxane B2, the latter two products are cyclooxygenase metabolites, origin-sample application point.
The data shown were obtained by determining the effects of various concentrations of CLA isomers on platelet thromboxane B2 production. […] [^14 C]-thromboxane B2 production by fatty acid-treated platelets relative to vehicle-treated platelets was determined and expressed as % control. Symbols used for various fatty acids: ΔΔ, CLA mix .box-solid.-.box-solid., 10,12-18:2, .smallcircle.-.smallcircle., 9,11-18:2, *-*, 13-HODE, .gradient.-.gradient., 9-HODE.

[2] = test system: 12-lipoxygenase (human platelet 12-HETE formation); assay: Human platelet 12-HETE formation from [14C]-arachidonic acid, TLC; type: cell-based; conditions: CLA mix 3 and 10 μM; 9,11-18:2 30 and 60 μM; 10,12-18:2 3 and 10 μM; with ionophore A23187
Method: as §1, with “Ten minutes after the addition of arachidonic acid, the reaction was terminated with 10% formic acid and the products extracted with chloroform-methanol.” left out, “software). To obtain the results shown in FIG. 2, the human platelets were pretreated with the various concentrations of CLA isomers followed by the addition of calcium ionophore A23187 and [^14 C]-arachidonic acid. […]” for “software).”

[3] = human platelets, exogenous arachidonic acid, calcium ionophore A23187, mean ± S.E.M., 6-11 donors

| Structure (SMILES) | IC50 ([1]; Homo sapiens) [µM] | potency as thromboxane inhibitor relative to non-hydroxylated parent ([1]; 9-HODE vs 10,12-18:2) | enhancement of inhibitory potency relative to the non-hydroxylated analog ([1]; 13-HODE vs 9,11 isomer) | IC50 [1, 3] [µM] | TXB2 formation (FIG. 2) [1] | inhibitory effectiveness on platelet TXB2 formation, CLA mix and pure isomers compared [1] | 12-HETE production (FIG. 2) [2] | decrease of inhibitory effectiveness relative to 10,12-18:2 ([1]; 9-HODE vs 10,12-18:2) |
| --- | --- | --- | --- | --- | --- | --- | --- | --- |
| CCCCCCCC/C=C\CCCCCCCC(=O)O [Oleic acid] | > 60 |  |  |  |  |  |  |  |
| CCCCC[C@H](O)/C=C/C=C\CCCCCCCC(=O)O [13-HODE] |  | more potent as a thromboxane inhibitor than the parent 9,11-18:2 | about five | 3 ± 0.7 |  |  |  |  |
| CCCCCC/C=C/C=C\CCCCCCCC(=O)O [9,11-18:2, 9,11-octadecadienoic acid] |  |  |  | 16 ± 1.8 | TXB2 was inhibited | approximately the same | no effect on the 12-HETE production |  |
| CCCCC/C=C\C=C\C(O)CCCCCCCC(=O)O (stereo not drawn) [9-HODE] |  | less potent than the corresponding non-hydroxylated parent 10,12-18:2 |  | 34 ± 6.5 |  |  |  | more than two |
| CCCCC/C=C\C=C\CCCCCCCCC(=O)O [10,12-18:2, 10,12-octadecadienoic acid] |  |  |  | 13 ± 4.1 | TXB2 was inhibited | approximately the same | no effect on the 12-HETE production |  |

Reference: patent US6077525A, “Use of conjugated linoleic acids” (The George Washington University, priority 1998, dated 2000)
